Measurements reported in US20110201558A1, “Anaplerotic Therapy for Alzheimer's Disease and the Aging Brain” (Baylor Research Institute, priority 2009, published 2011).

Legend:
[1] = set-up: species or system human; conditions: in vivo
Excerpt: For example, when using C7 as the source of odd-chain fatty acids these can be provided in the form of a triglyceride, e.g., tri-heptanoin. The triglyceride triheptanoin is provided in a concentration sufficient to provide a beneficial effect is most useful in this aspect of the present invention. The seven-carbon fatty acid may be provided, e.g.:
Goals have been set using 4 g/kg (within ideal body weight (IBW) range) for infants, children, and some adolescents. Goals have been set using 2 g/kg (within IBW range) for adolescents. Goals have been set using 2 g/kg (within IBW range) for adults; but toleration is 1-1.2 g per kg (which is 35% kcal of estimated needs).

[2] = system: patients with inherited disorders of fat and glycogen metabolism as well as pyruvate carboxylase deficiency; conditions: cited from earlier work
[3] = system: mouse brain; conditions: infusion of propionyl-CoA precursors; compared with heptanoate, BKP, or propionate; cited from earlier work

| Compound | toleration [1] | indirect measures of energy metabolism in the brain and peripheral organs such as muscle and heart [2] | anaplerosis (stimulation of the CAC and energy production) in mouse brain [3] |
| --- | --- | --- | --- |
| CCCCCCC(=O)OCC(COC(=O)CCCCCC)OC(=O)CCCCCC [triheptanoin] | 1-1.2 g per kg | positive effects | – |
| CCCCC(=O)O [pentanoate] | – | – | superior |
